Results: patent publication US20230339882A1, “SHP2 INHIBITOR AND COMPOSITION AND APPLICATION THEREOF” (Betta Pharmaceuticals Co., Ltd., priority 2020, published 2023)

Assays:
[1] = In vitro metabolic stability in liver microsomes, dog; type: in vitro ADME; settings: for microsomal CLint at 2 µM: dog, microsomes, pH 7.3
[2] = In vitro metabolic stability in liver microsomes, human; type: in vitro ADME; settings: for microsomal CLint at 2 µM: pH 7.3, read-out: CLint (µL/min/mg protein) human
Protocol: (§1) Example D: In Vitro Metabolic Stability of Human and Rat Liver Microsomes Test Buffer Preparation
(§2) Dissolve 1900 mg of MgCl2 in 400 mL of ultrapure water.
(§3) Dissolve 17.42 g K2HPO4 and 13.65 g KH2PO4 into 1000 mL of ultrapure water, respectively. Mix a certain proportion of K2HPO4 and KH2PO4 to adjust the pH to 7.30 ± 0.10.
(§4) Prepare a solution of 10 ng/mL labetalol and 10 ng/mL glyburide in acetonitrile and store at 4° C.
(§5) Prepare 10 mM verapamil (positive control) and test article stock solutions in DMSO. Then, with MeOH/ACN/H2O solution (1:1:2 by volume), diluted to 50 µM and 200 µM working solutions, respectively.
(§6) experiment procedure: • 1) Add 40 µL MgCl2 and 306 µL PBS to 96 wells (set blank control group, positive control group, test compound sample group, and negative control group at the same time) • 2) Add 4 µL of compound working solution to each well (4 µL of PBS buffer for blank group) (Note: the final concentration of DMSO volume in the system is ≤ 0.5%) • 3) Add 10 µL of liver microsomes (concentration: 20 mg/mL) to each well, mix well, and pre-incubate at 37° C. for 10 minutes. • 4) Add 40 µL of 10 mM NADPH working solution to each well to start the reaction (add equal volume of PBS buffer for blank control group and negative control group respectively), the total reaction volume is 400 µL. • 5) Take out 50 µL samples from the above reaction solution at 0, 5, 15, and 45 minutes, and add 400 µL of reaction stop solution to stop the reaction • 6) Shake the sample after the termination of the reaction on a shaker for 5 minutes. • 7) Centrifuge the sample at 3200 rcf for 10 minutes. After the centrifugation is complete, transfer 50 µL of the supernatant to 200 µL of H2O for dilution for LC-MS/MS analysis.
(§7) Calculations of t½ and CLint are performed using the first-order kinetic equations: […]
(§8) where k represents the elimination constant, calculated from a log-linear plot of percentage remaining versus time. t½ represents half-life. Cprotein is the concentration of liver microsomes.

[3] = In vitro metabolic stability in liver microsomes, rat; type: in vitro ADME; settings: for microsomal CLint at 2 µM: pH 7.3, read-out: CLint (µL/min/mg protein) rat
Protocol: as §1, §2, §3, §4, §5, §6, §7, §8

[4] = In vitro metabolic stability in liver microsomes, monkey; type: in vitro ADME; settings: for microsomal CLint at 2 µM: pH 7.3, read-out: CLint (µL/min/mg protein) monkey
[5] = In vitro metabolic stability in liver microsomes, mouse; type: in vitro ADME; settings: for microsomal CLint at 2 µM: pH 7.3, read-out: CLint (µL/min/mg protein) mouse
leukemia cells MV-4-11 = assay: Cell proliferation assay, CELL TITER-GLO (CTG) luminescence, MV-4-11; type: cell-based
Protocol: (§9) Example B: Cell Proliferation Assay
(§10) The effects of the compounds of the invention on the proliferation of leukemia cells MV-4-11 and lung cancer cells NCI-H358 were evaluated using in vitro cell assays. The detection method used in the experiment is the CELL TITER-GLO (CTG) luminescence method, which can detect the number of viable cells by quantifying ATP. Because ATP participates in a variety of enzymatic reactions in vivo, it is an indicator of the metabolism of living cells, and its content directly reflects the number and state of cells. During the experiment, CellTiter-Glo™ reagent was added to the cell culture medium to measure the luminescence value. The value is proportional to the amount of ATP, and ATP is positively related to the number of living cells, so the cell viability can be examined by detecting the ATP content.
(§11) experiment procedure: • (1) Cell plating: • Take a bottle of MV-4-11 cells in logarithmic growth phase, resuspend the cells by centrifugation and count them. After adjusting the cell density, they were seeded into a 96-well plate (Corning #3917). After culturing in a 5% CO2 incubator for 24 hrs, the compound of the present invention was added for treatment; • Take a bottle of NCI-H358 cells in logarithmic growth phase, digest and resuspend the cells, count them, adjust the cell density, and inoculate them into a 96-well transparent ultra-low adsorption cell culture plate (Corning #3474), inoculate 2000 cells per well. The plate was placed in an incubator at 37° C. and 5% CO2 for 24 hrs, and then the compound of the present invention was added for treatment; • (2) Cell compound treatment: • An appropriate amount of the compound of the present invention was prepared for cell treatment. The final concentration of the compound from high to low was 1000 nM, 333.3 nM, 111.1 nM, 37.04 nM, 12.35 nM, 4.115 nM, 1.372 nM, 0.4572 nM, 0.1524 nM, and 0 nM. The plate was placed in a 37° C., 5% CO2 incubator for 120 hrs. Only adding medium without cell wells was set as the blank group; the group with compound concentration of 0 nM was the zero-adjusting group. • (3) CTG detection: • After NCI-H358 cells were cultured for 96 hrs, 50 µL of CellTiter-Glo® Luminescent Cell Viability Assay solution was added to each well, shaken gently for 2 mins, and incubated at room temperature for 10 mins. The cell reaction system was transferred to a white-bottomed 96-well plate. Read the detection value of each well on a multi-function microplate reader. • After MV-4-11 cells were cultured for 120 hrs, 50 µL of CellTiter-Glo® Luminescent Cell Viability Assay solution was added to each well, gently shaken for 2 mins, and incubated at room temperature for 10 mins. Check the value. • (4) Data analysis: • Calculate the inhibition rate from the luminescence value readings, • [formula]
(§12) The log(inhibitor) vs. response-Variable slope of GraphPad Prism was fitted to dose-response curves and IC50s of compounds that inhibited cell proliferation were calculated.

[6] = test system: lung cancer cells NCI-H358; assay: Cell proliferation assay, CELL TITER-GLO (CTG) luminescence, NCI-H358; type: cell-based; settings: cultured for 96 hrs
Protocol: as §9, §10, §11, §12

SHP2 = SHP2 (Homo sapiens (Human), UniProt Q06124); assay: SHP2 allosteric inhibitory enzyme activity assay (DiFMUP fluorescence); type: biochemical; settings: read-out: SHP2 enzymatic activity IC50
Sequence of SHP2 (Q06124 whole entry): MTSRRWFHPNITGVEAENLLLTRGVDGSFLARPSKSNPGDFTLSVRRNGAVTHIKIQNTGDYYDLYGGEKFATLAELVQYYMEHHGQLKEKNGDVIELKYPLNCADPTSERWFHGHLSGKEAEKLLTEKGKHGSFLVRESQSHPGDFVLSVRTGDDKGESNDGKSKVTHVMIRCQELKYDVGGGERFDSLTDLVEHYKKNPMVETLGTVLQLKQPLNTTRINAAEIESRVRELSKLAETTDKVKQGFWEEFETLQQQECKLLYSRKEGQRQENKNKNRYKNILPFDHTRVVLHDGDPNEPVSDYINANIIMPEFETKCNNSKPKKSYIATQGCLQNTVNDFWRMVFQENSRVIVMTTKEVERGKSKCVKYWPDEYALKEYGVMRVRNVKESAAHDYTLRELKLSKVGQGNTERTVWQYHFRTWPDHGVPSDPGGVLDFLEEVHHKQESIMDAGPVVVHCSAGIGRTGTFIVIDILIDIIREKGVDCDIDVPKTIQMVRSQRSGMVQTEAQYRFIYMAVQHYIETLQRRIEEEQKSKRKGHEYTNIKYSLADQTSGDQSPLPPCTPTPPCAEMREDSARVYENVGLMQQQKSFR
From the text: Example A: SHP2 Allosteric Inhibitory Enzyme Activity Assay
SHP2 is allosterically activated by binding of a bis-tyrosyl-phosphorylated peptide to its Src homology 2 (SH2) domain. This later activation step results in the release of the autoinhibitory interface of SHP2, which in turn activates the SHP2 protein tyrosine phosphatase (PTP) and is available for substrate recognition and reaction catalysis. The catalytic activity of SHP2 was monitored using the surrogate DiFMUP in a rapid fluorescence assay format.
experiment procedure: • (1) Compound preparation: • The compounds of the present invention (10 mM stock solution) were diluted to appropriate times with 100% DMSO, and the final test concentrations of the compounds of the present invention were 10 µM, 3.3333 µM, 1.1111 µM, 0.3704 µM, 0.1235 µM, 0.0412 µM, 0.0137 µM, 0.0046 µM, 0.0015 µM, 0.00 µM; • (2) Prepare the enzyme reaction working solution: • Perform SHP2 enzymatic assays in 96-well black polystyrene plates (flat bottom, low flange, non-binding surface) (Perki Elmer, Cat#6005270) at room temperature using a final reaction volume of 50 µL and the following assay buffer conditions: 60 mM HEPES, 75 mM NaCl, 75 mM KCl, 0.05% BRIJ-35, 1 mM EDTA, 5 mM DTT. • (3) Enzyme-catalyzed reaction and data monitoring: • Add the compound of the present invention to the corresponding 96-well plate, and set the blank test well without compound and enzyme only with buffer. Thaw SHP2 Activating Peptide (IRS1_pY1172(dPEG8)pY1222) on ice, add 25 µM to each well, then add 0.2 ng of SHP2 protein sample to the corresponding well plate and incubate at room temperature for 1 hour. The surrogate substrate DiFMUP (Invitrogen, Cat #D6567) was added to the reaction and allowed to react for 1 hour at room temperature. Fluorescence signals were monitored using a microplate reader (Envision, Perki Elmer) using excitation and emission wavelengths of 340 nm and […], respectively. • (4) Data analysis: • Calculation Formula: • [formula]
Among them: Conversion_sample is the conversion rate reading of the sample; Conversion_min is the average value of blank control wells, representing the conversion rate readings of wells without enzymatic activity; Conversion_max is the mean ratio of positive control wells, representing the conversion rate readings of wells without compound inhibition. The log(inhibitor) vs. response-Variable slope of the analysis software GraphPad Prism was used to fit the dose-response curve, and the IC50 value of the compound for the enzymatic activity was calculated.

[7] = Homo sapiens, MV4-11, cultured for 120 hrs
[8] = Homo sapiens, NCI-H358, ultra-low adsorption plate

Row | Compound | microsomal CLint at 2 µM [1] [µL/min/mg] | microsomal CLint at 2 µM [2] [µL/min/mg] | microsomal CLint at 2 µM [3] [µL/min/mg] | microsomal CLint at 2 µM [4] [µL/min/mg] | IC50 (leukemia cells MV-4-11; [7]) [nM] | microsomal CLint at 2 µM [5] [µL/min/mg] | IC50 [6, 8] [nM] | IC50 (SHP2) [nM] | other results
1 | (S)-4-((3-(5-(1-amino-1,3-dihydro spiro[indene-2,4′-piperidin]-1′-yl)-6-(hydroxymethyl)pyrazin-2-yl)pr op-2-yn-1-yl)oxy)-N-picoline amide [Compound A40] |  |  |  |  |  |  |  |  | CLint (µL/min/mg protein) dog ([1]; dog liver microsomes): 7.8 µL/min/mg protein; CLint (µL/min/mg protein) human [2]: 11.0 µL/min/mg protein; CLint (µL/min/mg protein) rat [3]: 11.7 µL/min/mg protein; CLint (µL/min/mg protein) monkey [4]: 15.5 µL/min/mg protein; CLint (µL/min/mg protein) mouse [5]: 11.0 µL/min/mg protein
2 | N#Cc1ccc(OCC#Cc2cnc(N3CCC4(CC3)Cc3ccccc3[C@H]4N)c(CO)n2)cc1 [Compound A12, (S)-4-((3-(5-(1-amino-1,3-dihydrospiro[indene-2,4′-piperidin]-1′-yl)-6-(hydroxymethyl)pyrazin-2-yl)prop-2-yn-1-yl)oxy)benzonitrile] | 6.2 | 0.2 | 5.5 | 7.3 | 3.8 | 8.3 | 7.4 |  | 
3 | NC(=O)Cn1cc(OCC#Cc2cnc(N3CCC4(CC3)Cc3ccccc3[C@H]4N)c(CO)n2)cn1 [Compound A82, (S)-2-(4-((3-(5-(1-amino-1,3-dihydrospiro[indene-2,4′-piperidin]-1′-yl)-6-(hydroxymethyl)pyrazin-2-yl)prop-2-yn-1-yl)oxy)-1H-pyrazol-1-yl)acetamide] | 3.9 | 8.6 | 5.3 | 4.5 | 9 | 10.5 | 40 |  | 
4 | N[C@@H]1c2ccccc2CC12CCN(c1ncc(C#CCOc3ccc4ccc(=O)[nH]c4c3)nc1CO)CC2 [Compound A24, (S)-7-((3-(5-(1-amino-1,3-dihydrospiro[indene-2,4′-piperidin]-1′-yl)-6-(hydroxymethyl)pyrazin-2-yl)prop-2-yn-1-yl)oxy)quinolin-2(1H)-one] | 8.8 | 1.6 | 11 | 9.9 | 1.3 | 8.3 | 1.5 |  | 
5 | Nc1ncc(OCC#Cc2cnc(N3CCC4(CC3)Cc3ccccc3[C@H]4N)c(CO)n2)cn1 [Compound A19, (S)-(3-(1-amino-1,3-dihydrospiro[indene-2,4′-piperidin]-1′-yl)-6-(3-( (2-Aminopyrimidine-5-yl)oxy)prop-1-yn-1-yl)pyrazin-2-yl)methanol] | 18.3 | 8.2 | 31.6 | 21.2 |  | 21.4 |  |  | 
6 | N[C@@H]1c2ccccc2CC12CCN(c1ncc(C#CCOc3ccc(C(F)(F)F)cc3)nc1CO)CC2 [Compound A14, (S)-(3-(1-amino-1,3-dihydrospiro[indene-2,4′-piperidin]-1′-yl)-6-(3-(4-(trifluoromethyl)phenoxy)prop-1-yn-1-yl)pyrazin-2-yl)methanol] | 7.8 | 1.4 | 1.8 | 3.1 |  | 6.4 |  |  | 
7 | N[C@@H]1c2ccccc2CC12CCN(c1ncc(C#CCOc3ccc(O)cn3)nc1CO)CC2 [Compound A75, (S)-6-((3-(5-(1-amino-1,3-dihydrospiro[indene-2,4′-piperidin]-1′-yl)-6-(hydroxymethyl)pyrazin-2-yl)prop-2-yn-1-yl)oxy)pyridin-3-ol] |  |  |  |  | 7.3 |  | 78 | 7.8 | 
8 | COc1cccc(OCC#Cc2cnc(N3CCC4(CC3)Cc3ccccc3[C@H]4N)c(CO)n2)c1 [Compound A02, (S)-(3-(1-amino-1,3-dihydrospiro [indene-2,4′-piperidine]-1′-yl)-6-(3-(3-methoxyphenoxy)prop-1-yn-1-yl)pyrazin-2-yl) methanol] |  |  |  |  | 5 |  | 7.8 | 0.7 | 
9 | Nc1cccc(OCC#Cc2cnc(N3CCC4(CC3)Cc3ccccc3[C@H]4N)c(CO)n2)c1 [Compound A03] |  |  |  |  |  |  |  | 1.1 | IC50 (leukemia cells MV-4-11; cultured for 120 hrs): 1.5 nM; IC50 ([6]; ultra-low adsorption plate): 2.5 nM
